Test results published in patent US9149523B2, “Compositions and methods for treating cancer and neurodegenerative diseases” (Yeda Research and Development Co. Ltd., priority 2010, dated 2015).

Target: T1, DAPk WT (Homo sapiens, UniProt P53355)
T1 construct: Plasmids encoding N-terminal Flag and hemaglutinin (HA)-tagged human full-length DAPk (Flag-DAPk and HA-DAPk); made in house; host or cells: HEK 293T cells, transient transfection; anti-FLAG M2 immunoprecipitation, elution with FLAG peptide
Assay: In vitro kinase assay (ELISA, hMLC Ser 19 phosphorylation)
Assay type: biochemical
Settings: DAPk WT pre-incubated with GDP versus Gpp(NH)p (non-hydrolysable GTP analog); FIG. 4C
Protocol: Maxisorp™ multiwell polystyrene plates (Nunc, Langenselbold, Germany) were incubated at 4° C., overnight, with the indicated amounts of hMLC diluted in PBS. Plates were washed with PBST and blocked with 4% BSA (Sigma, City, State) diluted in PBS. The kinase reactions were then performed on the plate. Briefly, the wells were incubated with kinase buffer (50 mM Hepes, pH 7.5, 20 mM MgCl2, 0.1 mg/mL BSA, 50 mM β-glycerol phosphate, 50 μM ATP) containing 2.5 nM of the indicated enzyme, for 10 min. The reactions were stopped by addition of EDTA to final concentration of 25 mM. Plates were washed again with PBST and then incubated with rabbit anti MLC (Ser19) polyclonal antibody (Cell Signaling, Danvers, Mass.) at a 1:250 dilution in PBS. PBST wash was performed again and the plate incubated with HRP-conjugated goat anti rabbit IgG (Jackson ImmunoResearch, West Grove, Pa.). Detection was done with the HRP substrate ABTS. Where indicated the HRP read outs were plot using the Michaelis-Menten equation and the curves fit by the least squares method.
To determine the significance to DAPk's enzymatic activity of the ROC domain in general and of the GTP-binding in particular, in vitro kinase assays were performed. The assays were based on an ELISA format measuring phosphorylation of the DAPk substrate hMLC at Ser 19, using specific anti-phospho Ser19 antibodies. […]

T1 sequence (P53355 whole entry): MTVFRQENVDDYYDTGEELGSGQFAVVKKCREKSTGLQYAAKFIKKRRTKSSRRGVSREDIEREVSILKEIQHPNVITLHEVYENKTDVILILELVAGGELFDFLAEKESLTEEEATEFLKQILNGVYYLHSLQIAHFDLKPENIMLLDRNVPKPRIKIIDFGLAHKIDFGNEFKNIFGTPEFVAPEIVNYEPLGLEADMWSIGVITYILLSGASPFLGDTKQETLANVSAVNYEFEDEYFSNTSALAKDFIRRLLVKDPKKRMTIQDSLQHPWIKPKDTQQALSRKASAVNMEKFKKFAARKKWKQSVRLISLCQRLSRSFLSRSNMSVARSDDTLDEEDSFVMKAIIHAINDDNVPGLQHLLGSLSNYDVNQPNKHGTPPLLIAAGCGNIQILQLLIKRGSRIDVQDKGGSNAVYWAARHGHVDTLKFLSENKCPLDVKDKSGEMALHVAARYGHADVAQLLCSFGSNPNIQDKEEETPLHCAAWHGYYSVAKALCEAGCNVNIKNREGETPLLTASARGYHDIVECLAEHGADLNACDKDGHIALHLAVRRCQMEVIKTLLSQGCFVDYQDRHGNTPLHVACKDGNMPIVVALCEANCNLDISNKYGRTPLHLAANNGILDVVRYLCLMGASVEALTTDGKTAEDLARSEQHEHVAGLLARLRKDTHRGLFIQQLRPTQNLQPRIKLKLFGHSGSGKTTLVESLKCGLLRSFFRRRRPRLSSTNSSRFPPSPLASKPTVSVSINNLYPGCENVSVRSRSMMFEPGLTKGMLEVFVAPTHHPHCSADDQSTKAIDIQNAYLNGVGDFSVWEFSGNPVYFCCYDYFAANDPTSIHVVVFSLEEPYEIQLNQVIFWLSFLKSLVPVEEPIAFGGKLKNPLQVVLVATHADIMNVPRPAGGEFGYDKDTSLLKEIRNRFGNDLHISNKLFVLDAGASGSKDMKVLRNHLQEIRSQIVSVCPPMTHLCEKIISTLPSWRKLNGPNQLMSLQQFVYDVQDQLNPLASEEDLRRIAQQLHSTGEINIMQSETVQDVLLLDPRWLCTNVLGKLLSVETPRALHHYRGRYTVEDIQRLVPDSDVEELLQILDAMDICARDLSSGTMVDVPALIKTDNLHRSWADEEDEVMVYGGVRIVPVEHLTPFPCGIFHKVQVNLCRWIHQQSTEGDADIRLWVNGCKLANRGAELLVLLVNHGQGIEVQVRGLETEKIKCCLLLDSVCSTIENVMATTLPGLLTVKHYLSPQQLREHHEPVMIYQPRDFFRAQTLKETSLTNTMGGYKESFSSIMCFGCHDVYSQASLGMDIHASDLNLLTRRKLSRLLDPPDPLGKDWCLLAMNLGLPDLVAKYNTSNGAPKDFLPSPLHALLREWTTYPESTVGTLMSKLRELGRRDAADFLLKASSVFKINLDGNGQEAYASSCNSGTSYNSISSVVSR

In the case of Nc1nc2c(ncn2[C@@H]2O[C@H](COP(=O)(O)OP(=O)(O)O)[C@@H](O)[C@H]2O)c(=O)[nH]1 [GDP], the DAPk catalytic activity is reported as “increased catalytic activity”.
